This test deals with T1, USP30 (Homo sapiens, UniProt Q70CQ3).
T1 construct: Catalog #E-582 residues 57-517; purchased E-582
T1 sequence (Q70CQ3 57-517): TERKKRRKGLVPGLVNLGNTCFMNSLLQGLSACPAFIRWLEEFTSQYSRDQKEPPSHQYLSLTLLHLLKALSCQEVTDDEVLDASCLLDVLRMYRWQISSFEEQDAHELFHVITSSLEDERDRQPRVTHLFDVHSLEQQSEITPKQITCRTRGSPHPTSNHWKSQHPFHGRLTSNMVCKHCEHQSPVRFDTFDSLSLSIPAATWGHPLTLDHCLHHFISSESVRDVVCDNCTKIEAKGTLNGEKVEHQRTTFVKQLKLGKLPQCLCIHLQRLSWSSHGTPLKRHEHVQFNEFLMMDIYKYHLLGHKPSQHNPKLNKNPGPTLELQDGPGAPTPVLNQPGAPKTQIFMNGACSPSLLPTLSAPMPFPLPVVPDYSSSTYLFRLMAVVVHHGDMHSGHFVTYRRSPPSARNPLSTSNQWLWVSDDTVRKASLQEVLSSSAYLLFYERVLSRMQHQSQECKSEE
As to the kind of experiment: USP30 FP kinetic analysis (kobs/I, Ki, kinact) using Ub-Lys(TAMRA)-Gly. The conditions noted are these: for kinact/KI: read-out: kobs/I. The test is classed as biochemical. The method, then: We further characterised inhibition kinetics for ABPs in a FP assay using Ub-Lys(TAMRA)-Gly. kobs/I, Ki and kinact determination assay was performed using 30 nM USP30 and 100 nM Ub-Lys(TAMRA)-Gly as described in ESI, ^† Section S3.1.c. FP was monitored kinetically over an hour after addition of the substrate, and response curves fitted to y = (vi/kobs) (1 − exp(−kobsx)) to calculate kobs/I, 5680 (95% Cl = 4723–6638) M^−1 s^−1 for IMP-2587, and 3021 (95% Cl = 2350–3693) M^−1 s^−1 for IMP-2586 (Fig. S1, ESI ^†).
4. Biochemical and biological methods and proteomics
1) Biochemical USP30 fluorescence polarisation (FP) assay using Ub-Lys(TAMRA)-Gly […]
USP30 was diluted in reaction buffer A (40 mM Tris, pH 7.5, 0.005% Tween 20, 0.5 mg/ml BSA, 5 mM betamercaptoethanol) and 10 μL of diluted 10.5 nM […]
b. USP30 biochemical kinetic assay
Reactions were performed in triplicate in black 384 well plates (small volume, Greiner 784076) in a final reaction volume of 20 ul. […]
Pherastar Plus (BMG Labtech). l Excitation 540 nm; l Emission 590 nm.
Inhibition kinetics for compound ABP 2 and ABP 4 were determined by preparing compound dilution plates at 21× final concentration in 50% DMSO in water. 50% DMSO (1 μL) or diluted compound (1 μL) was added to the reaction plate. Substrate Ub-TAMRA (200 nM, 10 μL) (final concentration: 100 nM) was prepared in buffer A described in section 3.1.a and added to the reaction plate. Reactions were initiated by the addition of USP30 (21 nM, 10 μL) (final concentration 10 nM), and fluorescence polarisation read immediately for 1 h in every 2 min. Analysis was performed in GraphPad Prism.
Kinetic progress curves were fitted to equation y = (vi/kobs) (1 − exp(−kobs*x)) to determine the kobs value (for first 30 min data). The kobs value was then plotted against the inhibitor concentration to […]

Setting [1] is: 30 nM USP30, 100 nM Ub-Lys(TAMRA)-Gly, nonlinear regression to kobs = kinact/(1 + (Ki/x)).

pKi: −log10 of the molar value.

One may read the pKi as the Ki on a negative log10 scale, so that one unit is a factor of ten.

As for `N#CN1CC[C@@H](NC(=O)c2cc(-c3ccccc3Oc3ccc(N=[N+]=[N-])cc3)n[nH]2)C1` [IMP-2586], the kinact/KI amounted to 3020 M⁻¹ s⁻¹. Also, the pKi under setting [1] is 8.25.

For the compound `C#Cc1cccc(-c2cc(NC(=O)CC3CCN(C#N)C3)on2)c1` (centres unmarked) [IMP-2587], the kinact/KI worked out at 5680 M⁻¹ s⁻¹. Also, under setting [1], the KI (inactivation) is 42.7 nM and the negative-log Ki (pKi) is 7.37.
